Measured values as given in US20260297042A1, “BIARYLAMIDE DERIVATIVES AND THEIR USE AS PKMYT1 INHIBITORS” (CANCER RESEARCH TECHNOLOGY LIMITED, priority 2023, published 2026).
Structures can show the parent of a compound that is named as a salt.

Assays:
WEE1 = biological target: T1, WEE1 (Homo sapiens, UniProt P30291); test: Selectivity versus WEE1 assay (ADP-Glo enzymatic assay); assay type: biochemical; conditions: banded; for IC50: ADP-Glo, 15 nM WEE1, 60 minutes at 26° C.; for PKMYT1 vs. WEE1 selectivity: fold difference in selectivity for PKMYT1 over WEE1, ">N" = at least in this band but could be higher
T1 construct: purchased Thermo Fisher PR7373A
Protocol: Selectivity versus WEE1 assay: Selectivity was established using the same format as outlined for PKMYT1. After dosing of compounds via the Echo acoustic dispenser—as described above—WEE1 (Thermo Fisher PR7373A) was added to each well at a final concentration of 15 nM in a buffer of 50 mM HEPES (pH 7.5), 10 mM MgCl2, 1 mM EGTA, 0.01% Brij-35, 1% DMSO. 30 µM ATP was added to start the reaction with the final assay volume being 4 μl. The plate was then incubated for 60 minutes at 26° C. before the addition of 4 μl of ADP-Glo Reagent. Following a further 60 minute incubation the assay signal was developed by the addition of 8 μl ADP-Glo Detection Reagent. After 60 minutes the luminescence signal was read on a PHERAStar FS microplate reader (BMG Labtech).
(§1) Data analysis: Data was captured and analysed within the Dotmatics Studies software module where dose response curves were generated and IC50 values determined. Acceptance and verification of data followed strict in-house business rules which are summarised as follows. […] Technical and biological replicates of each compound are routinely tested and replicate IC50 values must fall within 3-fold of each other with dose response curves showing ‘goodness of fit’ r2 values >0.9. Failure to meet any of these defined criteria result in rejection of data.

Human PKMYT1 = biological target: T2, Human PKMYT1 (Homo sapiens, UniProt Q99640); test: PKMYT1 biochemical ADP-Glo enzymatic assay; conditions: ADP-Glo; 15 nM PKMYT1 kinase domain, 500 µM ATP, 60 minutes at 26° C.; banded
T2 construct: Human PKMYT1 75-362 was cloned as a TEV cleavable 6xHis fusion; 6xHis (TEV cleavable) (cleaved yes); made in house; host or cells: bacterial cells
T2 sequence (Q99640 75-362): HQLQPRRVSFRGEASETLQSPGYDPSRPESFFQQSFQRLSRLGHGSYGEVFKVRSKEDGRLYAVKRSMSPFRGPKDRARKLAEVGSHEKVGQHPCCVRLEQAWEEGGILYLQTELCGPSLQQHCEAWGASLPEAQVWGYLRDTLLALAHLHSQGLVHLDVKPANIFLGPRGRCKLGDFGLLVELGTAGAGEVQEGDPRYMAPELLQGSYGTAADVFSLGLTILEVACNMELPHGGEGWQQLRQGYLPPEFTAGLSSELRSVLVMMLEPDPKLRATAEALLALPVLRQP
Protocol: Human PKMYT1 75-362 was cloned as a TEV cleavable 6xHis fusion in bacterial cells. After purification on a Ni++HiTrap Chelating HP column, the His-tag was cleaved using TEV protease. Cleaved PKMYT1 was further purified on a Superdex 200 16/600 sizing column. The fractions containing PKMYT1 were pooled and concentrated using an ultrafiltration centrifugal protein concentrator. The purified protein was aliquoted, flash frozen in liquid nitrogen, and stored at −80° C.
PKMYT1 biochemical assay: Inhibition of PKMYT1 was assessed using the ADP-Glo™ Max Detection System from Promega. This assay detects the production of ADP from ATP by PKMYT1 via a two-step process ultimately involving the conversion of ADP to ATP with the latter converted to light in a coupled reaction with luciferase/luciferin. Inhibition of PKMYT1 by small molecule inhibitors results in a retardation of luminescence above background. The intrinsic ATPase activity of PKMYT1 was assessed according to the following protocol. Compounds were dosed into Corning white low volume 384 well assay plates using an Echo acoustic dispenser to generate 10-point curves spanning a 3-fold dilution series. DMSO (no inhibitor) control wells were prepared to benchmark the maximum and minimum signals in the presence and absence of PKMYT1, respectively. The PKMYT1 kinase domain was purified in-house, as described above, and added to the wells at a final concentration of 15 nM in a buffer of 50 mM HEPES (pH 7.5), 10 mM MgCl2, 1 mM EGTA, 0.01% Brij-35, 1% DMSO. 500 µM ATP was added to start the reaction with the final assay volume being 4 μl. The plate was then incubated for 60 minutes at 26° C. before the addition of 4 μl of ADP-Glo Reagent to stop the reaction and deplete the unconsumed ATP. Following a further 60 minute incubation the assay signal was developed by the addition of 8 μl ADP-Glo Max Detection Reagent. After 60 minutes the luminescence signal was read on a PHERAStar FS microplate reader (BMG Labtech).
as §1

T1 sequence (P30291 whole entry): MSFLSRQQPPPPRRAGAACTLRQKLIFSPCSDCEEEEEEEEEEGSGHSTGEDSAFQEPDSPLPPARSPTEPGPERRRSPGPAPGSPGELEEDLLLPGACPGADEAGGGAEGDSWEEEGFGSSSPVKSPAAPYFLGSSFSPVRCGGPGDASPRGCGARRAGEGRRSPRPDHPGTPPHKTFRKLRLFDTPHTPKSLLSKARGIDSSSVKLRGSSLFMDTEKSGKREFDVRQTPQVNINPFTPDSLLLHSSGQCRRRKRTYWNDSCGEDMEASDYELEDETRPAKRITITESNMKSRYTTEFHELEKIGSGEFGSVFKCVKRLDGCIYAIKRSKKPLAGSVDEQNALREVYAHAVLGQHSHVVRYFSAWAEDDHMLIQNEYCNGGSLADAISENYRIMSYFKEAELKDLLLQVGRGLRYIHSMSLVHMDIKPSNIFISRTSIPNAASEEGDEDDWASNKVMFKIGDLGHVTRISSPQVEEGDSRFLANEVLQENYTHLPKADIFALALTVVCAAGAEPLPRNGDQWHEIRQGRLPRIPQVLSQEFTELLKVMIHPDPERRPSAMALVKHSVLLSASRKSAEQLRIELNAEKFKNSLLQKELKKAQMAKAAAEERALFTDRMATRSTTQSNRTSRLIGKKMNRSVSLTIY

IC50 (WEE1) [µM] | PKMYT1 vs. WEE1 selectivity (WEE1) | IC50 (Human PKMYT1) [µM] | SMILES
> 11 | >X (100-<1000 fold) | 0.05 to 1 | Cc1ccc(O)c(C)c1NC(=O)c1cnc(Nc2ccn(C3CCN(C(=O)OC(C)(C)C)CC3)n2)s1 [BAA-031]
1 to 11 | W (10-<100 fold) | 0.05 to 1 | Cc1ccc(O)c(C)c1NC(=O)c1cnc(Nc2ccn(CC3CCOC3)n2)s1 (stereo not drawn) [BAA-032, N-(3-hydroxy-2,6-dimethyl-phenyl)-2-[[1-(tetrahydrofuran-3-ylmethyl)pyrazol-3-yl]amino]thiazole-5-carboxamide]
> 11 | Z (>5000 fold) | < 0.05 | Cc1ccc(O)c(C)c1NC(=O)c1cnc(Nc2ccn(C3CCCOC3)n2)s1 (stereo not drawn) [BAA-036, N-(3-hydroxy-2,6-dimethyl-phenyl)-2-[(1-tetrahydropyran-3-ylpyrazol-3-yl)amino]thiazole-5-carboxamide]
> 11 | >X (100-<1000 fold) | 0.05 to 1 | Cc1ccc(O)c(C)c1NC(=O)c1cnc(Nc2ccn([C@@H]3CCOC3)n2)s1 [BAA-037]
> 11 | >X (100-<1000 fold) | 0.05 to 1 | Cc1ccc(O)c(C)c1NC(=O)c1cnc(Nc2ccn([C@H]3CCN(C(=O)OC(C)(C)C)C3)n2)s1 [BAA-042]
> 11 | >Y (1000-5000 fold) | 0.05 to 1 | Cc1ccc(O)c(C)c1NC(=O)c1cnc(Nc2ccn([C@@H]3CCN(C(=O)OC(C)(C)C)C3)n2)s1 [BAA-043, tert-Butyl(3R)-3-[3-[[5-[(3-hydroxy-2.6-dimethyl-phenyl)carbamoyl]thiazol-2-yl]amino]pyrazol-1-yl]pyrrolidine-1-carboxylate]
> 11 | W (10-<100 fold) | 1 to 11 | Cc1ccc(O)c(C)c1NC(=O)c1cnc(Nc2ccn([C@H]3CCCNC3)n2)s1 [BAA-054, N-(3-hydroxy-2,6-dimethyl-phenyl)-2-[1-[(3S)-3-piperidyl]pyrazol-3-yllamino]thiazole-5-carboxamide (hydrochloride)]
> 11 | >X (100-<1000 fold) | 0.05 to 1 | Cc1ccc(O)c(C)c1NC(=O)c1cnc(Nc2ccn(C3CCNCC3)n2)s1 [BAA-055]
> 11 | X (100-<1000 fold) | 0.05 to 1 | Cc1ccc(O)c(C)c1NC(=O)c1cnc(Nc2ccn([C@@H]3CCNC3)n2)s1 [BAA-056, N-(3-hydroxy-2,6-dimethyl-phenyl)-2-[[1-[(3R)-pyrrolidin-3-yl]pyrazol-3-yl]amino]thiazole-5-carboxamide hydrochloride]
> 11 | >W (10-<100 fold) | 1 to 11 | Cc1ccc(O)c(C)c1NC(=O)c1cnc(Nc2ccn([C@H]3CCNC3)n2)s1 [BAA-057, N-(3-hydroxy-2,6-dimethyl-phenyl)-2-[1-[(3S)-pyrrolidin-3-yl]pyrazol-3-yllamino]thiazole-5-carboxamide (hydrochloride)]

Continued, compound first:

SMILES | IC50 (WEE1) [µM] | PKMYT1 vs. WEE1 selectivity (WEE1) | IC50 (Human PKMYT1) [µM]
Cc1ccc(O)c(C)c1NC(=O)c1cnc(Nc2nc3c(s2)COCC3)s1 [BAA-029, 2-(6,7-dihydro-4H-pyrano[4,3-d]thiazol-2-ylamino)-N-(3-hydroxy-2,6-dimethyl-phenyl)thiazole-5-carboxamide] | > 11 | X (100-<1000 fold) | 0.05 to 1
Cc1ccc(O)c(C)c1NC(=O)c1cnc(Nc2ncc[nH]2)s1 [BAA-030, N-(3-hydroxy-2,6-dimethyl-phenyl)-2-(1H-imidazol-2-ylamino)thiazole-5-carboxamide] | > 11 | >W (10-<100 fold) | 1 to 11
Cc1ccc(O)c(C)c1NC(=O)c1cnc(Nc2ccn(CC(=O)N3CCOCC3)n2)s1 [BAA-033] | > 11 | X (100-<1000 fold) | < 0.05
Cc1ccc(O)c(C)c1NC(=O)c1cnc(Nc2ccn(CC(=O)N3CCN(C)CC3)n2)s1 [BAA-034] | 1 to 11 | X (100-<1000 fold) | < 0.05
Cc1ccc(O)c(C)c1NC(=O)c1cnc(Nc2ccn(CC(=O)NCCN3CCOCC3)n2)s1 [BAA-035] | > 11 | X (100-<1000 fold) | 0.05 to 1
COCCn1ccc(Nc2ncc(C(=O)Nc3c(C)ccc(O)c3C)s2)n1 [BAA-040] | > 11 | X (100-<1000 fold) | 0.05 to 1
Cc1ccc(O)c(C)c1NC(=O)c1cnc(Nc2nc3ccccc3o2)s1 [BAA-044, 2-(1,3-benzoxazol-2-ylamino)-N-(3-hydroxy-2,6-dimethyl-phenyl)thiazole-5-carboxamide] | > 11 | >X (100-<1000 fold) | 0.05 to 1
Cc1ccc(O)c(C)c1NC(=O)c1cnc(Nc2cc3ccccn3n2)s1 [BAA-048, N-(3-hydroxy-2,6-dimethyl-phenyl)-2-(pyrazolo[1,5-a]pyridin-2-ylamino)thiazole-5-carboxamide] | > 11 | Y (1000-5000 fold) | 0.05 to 1
Cc1ccc(O)c(C)c1NC(=O)c1cnc(Nc2cc3ccc(Cl)cn3n2)s1 [BAA-051, 2-[(6-chloropyrazolo[1,5-a]pyridin-2-yl)amino]-N-(3-hydroxy-2,6-dimethyl-phenyl)thiazole-5-carboxamide] | > 11 | >X (100-<1000 fold) | 0.05 to 1
Cc1ccc(O)c(C)c1NC(=O)c1cnc(Nc2ccn(CCN)n2)s1 [BAA-053, 2-[[1-(2-Aminoethyl)pyrazol-3-yl]amino]-N-(3-hydroxy-2,6-dimethyl-phenyl)thiazole-5-carboxamide] | 1 to 11 | W (10-<100 fold) | 0.05 to 1
Cc1ccc(O)c(C)c1NC(=O)c1cnc(Nc2ccn(CCCC(=O)O)n2)s1 [BAA-058, 4-[3-[[5-[(3-Hydroxy-2,6-dimethyl-phenyl)carbamoyl]thiazol-2-yl]amino]pyrazol-1-yl]butanoic acid] | > 11 | X (100-<1000 fold) | < 0.05
Cc1ccc(O)c(C)c1NC(=O)c1cnc(Nc2ccn(CC(=O)O)n2)s1 [BAA-059, 2-[3-[[5-[(3-hydroxy-2,6-dimethyl-phenyl)carbamoyl]thiazol-2-yl]amino]pyrazol-1-yl]acetic acid] | > 11 | X (100-<1000 fold) | < 0.05
CCNc1ncc(C(=O)Nc2c(C)ccc(O)c2C)s1 [BAA-060, 2-(ethylamino)-N-(3-hydroxy-2,6-dimethyl-phenyl)thiazole-5-carboxamide] | > 11 | >X (100-<1000 fold) | 0.05 to 1
Cc1ccc(O)c(C)c1NC(=O)c1cnc(NCCO)s1 [BAA-062, N-(3-hydroxy-2,6-dimethyl-phenyl)-2-(2-hydroxyethylamino)thiazole-5-carboxamide] | > 11 | >W (10-<100 fold) | 1 to 11
COCCNc1ncc(C(=O)Nc2c(C)ccc(O)c2C)s1 [BAA-063, N-(3-hydroxy-2,6-dimethyl-phenyl)-2-(2-methoxyethylamino)thiazole-5-carboxamide] | > 11 | >W (10-<100 fold) | 1 to 11
